Test results published in patent US10669266B2, “Oxadiazole inhibitors of HIPK2 for treating kidney fibrosis” (ICAHN SCHOOL OF MEDICINE AT MOUNT SINAI, priority 2017, dated 2020).

System: Smad3-responsive luciferase reporter (SBE4-Luc)
Method: Human primary tubular cells (PromoCell GmbH, Heidelberg, Germany) were cultured in Renal Epithelial Cell Growth Medium-2 (Promocell GmbH) with supplements according to manufacturer's protocol human primary renal tubular epithelial cells with <5 passages were used for all studies. For HIV infection of hRTECs, pNL4-3:ΔG/P-EGFP, a gag/poi-deleted HIV-1 construct that contains EGFP in the gag open reading frame, and pHR-IRES-EGFP, a control EGFP construct, were used to generate the VSV-G pseudotyped virus. Cells were infected with HIV pseudotyped virus or control virus for 2 days before the treatment with test compound.
Renilla luciferase reporter plasmid (pRL) was purchased from Promega.
Forty-eight hours post-transfection cells were treated with assigned concentrations of test compound together with or without 10 ng/ml TGF-β1 for 16 hours. Luciferase activities were measured using the Dual-Luciferase Reporter Assay kit (Promega, #E1910). Data are expressed as the ratio of firefly luciferase activity over Renilla luciferase activity. […] 48 hours after transfection, luciferase activities were measured.

Row | SMILES | Luciferase Activity (Relative to DMSO control) −TGFβ
1 | CCOC(=O)c1ccc(-c2noc(-c3cnc4cc(B5OC(C)(C)C(C)(C)O5)ccc4c3)n2)cc1 [Example 8, ethyl 4-(5-(7-(4,4,5,5-tetramethyl-1,3,2-dioxaborolan-2-yl)quinolin-3-yl)-1,2,4-oxadiazol-3-yl)benzoate] | 0.818
2 | CCOC(=O)c1ccc(-c2noc(-c3cnc4cc(Cl)ccc4c3)n2)cc1 [Example 2] | 0.660
3 | CC1(C)OB(c2ccc3cc(-c4nc(-c5ccc(C(=O)O)cc5)no4)cnc3c2)OC1(C)C [Example 6, 4-(5-(7-(4,4,5,5-tetramethyl-1,3,2-dioxaborolan-2-yl)quinolin-3-yl)-1,2,4-oxadiazol-3-yl)benzoic acid] | 0.722
4 | COc1ccc2cc(-c3nc(-c4ccc([B-](F)(F)F)cc4)no3)cnc2c1 [Example 4] | 0.366
5 | CCOC(=O)c1ccc(-c2noc(-c3cnc4cc(Br)ccc4c3)n2)cc1 [Example 5, ethyl 4-(5-(7-bromoquinolin-3-yl)-1,2,4-oxadiazol-3-yl)benzoate] | 0.512
6 | COc1ccc2cc(-c3nc(-c4ccc(B5OC(C)(C)C(C)(C)O5)cc4)no3)cnc2c1 [Example 3, 5-(7-methoxyquinolin-3-yl)-3-(4-(4,4,5,5-tetramethyl-1,3,2-dioxaborolan-2-yl)phenyl)-1,2,4-oxadiazole] | 0.730
7 | COc1ccc2cc(-c3nc(-c4cccc(Br)n4)no3)cnc2c1 [Example 7] | 0.784
